Assay results as given in patent publication US20190330224A1, “ACC INHIBITORS AND USES THEREOF” (Gilead Apollo, LLC, priority 2015, published 2019).
≈ marks a conversion by molar mass, not a printed value.

Tests used:
Human ACC2 = Human ACC2 (Homo sapiens, UniProt O00763); test: In vitro ACC2 inhibition assay (ADP-Glo), human ACC2; assay type: biochemical; settings: 5 nM ACC2, 20 μM ATP, 20 μM acetyl-CoA
C. albicans ATCC 90028 = test: Anti-Fungal Activity Assay (broth microtiter MIC), C. albicans; assay type: cell-based, Candida albicans; settings: Candida albicans, ATCC90028, 48 h, 3 replicates; MIC recorded at 48 h; read-out: MIC C. albicans ATCC 90028
Summary of the method: (§1)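 Candida strains were grown from frozen stock on Sabouraud dextrose agar overnight at 35° C, then suspended directly in RPMI 1640+MOPS and quantified against standard curves. Broth microdilution MIC plates followed CLSI M27-A3; MICs were read visually against growth control at 48 h, with a 24 h read added for soraphen.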

C. krusei ATCC 6258 = test: Anti-Fungal Activity Assay (broth microtiter MIC), C. krusei; assay type: cell-based, Candida krusei; settings: Pichia kudriavzevii, ATCC6258, 48 h, 3 replicates; MIC recorded at 48 h; read-out: MIC C. krusei ATCC 6258
Summary of the method: as §1

[1] = tested on: C. parapsilosis ATCC 22019; test: Anti-Fungal Activity Assay (broth microtiter MIC), C. parapsilosis; assay type: cell-based, Candida parapsilosis; settings: Lodderomyces parapsilosis, ATCC22019, 48 h, 3 replicates; MIC recorded at 48 h; read-out: MIC C. parapsilosis ATCC 22019
Summary of the method: as §1

Fungal ACC2 = Fungal ACC2 (UniProt Q00955); settings: read-out: Fungal ACC2 (IC50, in vitro ACC2 inhibition)
Fungal ACC2, sequence (Q00955 whole entry): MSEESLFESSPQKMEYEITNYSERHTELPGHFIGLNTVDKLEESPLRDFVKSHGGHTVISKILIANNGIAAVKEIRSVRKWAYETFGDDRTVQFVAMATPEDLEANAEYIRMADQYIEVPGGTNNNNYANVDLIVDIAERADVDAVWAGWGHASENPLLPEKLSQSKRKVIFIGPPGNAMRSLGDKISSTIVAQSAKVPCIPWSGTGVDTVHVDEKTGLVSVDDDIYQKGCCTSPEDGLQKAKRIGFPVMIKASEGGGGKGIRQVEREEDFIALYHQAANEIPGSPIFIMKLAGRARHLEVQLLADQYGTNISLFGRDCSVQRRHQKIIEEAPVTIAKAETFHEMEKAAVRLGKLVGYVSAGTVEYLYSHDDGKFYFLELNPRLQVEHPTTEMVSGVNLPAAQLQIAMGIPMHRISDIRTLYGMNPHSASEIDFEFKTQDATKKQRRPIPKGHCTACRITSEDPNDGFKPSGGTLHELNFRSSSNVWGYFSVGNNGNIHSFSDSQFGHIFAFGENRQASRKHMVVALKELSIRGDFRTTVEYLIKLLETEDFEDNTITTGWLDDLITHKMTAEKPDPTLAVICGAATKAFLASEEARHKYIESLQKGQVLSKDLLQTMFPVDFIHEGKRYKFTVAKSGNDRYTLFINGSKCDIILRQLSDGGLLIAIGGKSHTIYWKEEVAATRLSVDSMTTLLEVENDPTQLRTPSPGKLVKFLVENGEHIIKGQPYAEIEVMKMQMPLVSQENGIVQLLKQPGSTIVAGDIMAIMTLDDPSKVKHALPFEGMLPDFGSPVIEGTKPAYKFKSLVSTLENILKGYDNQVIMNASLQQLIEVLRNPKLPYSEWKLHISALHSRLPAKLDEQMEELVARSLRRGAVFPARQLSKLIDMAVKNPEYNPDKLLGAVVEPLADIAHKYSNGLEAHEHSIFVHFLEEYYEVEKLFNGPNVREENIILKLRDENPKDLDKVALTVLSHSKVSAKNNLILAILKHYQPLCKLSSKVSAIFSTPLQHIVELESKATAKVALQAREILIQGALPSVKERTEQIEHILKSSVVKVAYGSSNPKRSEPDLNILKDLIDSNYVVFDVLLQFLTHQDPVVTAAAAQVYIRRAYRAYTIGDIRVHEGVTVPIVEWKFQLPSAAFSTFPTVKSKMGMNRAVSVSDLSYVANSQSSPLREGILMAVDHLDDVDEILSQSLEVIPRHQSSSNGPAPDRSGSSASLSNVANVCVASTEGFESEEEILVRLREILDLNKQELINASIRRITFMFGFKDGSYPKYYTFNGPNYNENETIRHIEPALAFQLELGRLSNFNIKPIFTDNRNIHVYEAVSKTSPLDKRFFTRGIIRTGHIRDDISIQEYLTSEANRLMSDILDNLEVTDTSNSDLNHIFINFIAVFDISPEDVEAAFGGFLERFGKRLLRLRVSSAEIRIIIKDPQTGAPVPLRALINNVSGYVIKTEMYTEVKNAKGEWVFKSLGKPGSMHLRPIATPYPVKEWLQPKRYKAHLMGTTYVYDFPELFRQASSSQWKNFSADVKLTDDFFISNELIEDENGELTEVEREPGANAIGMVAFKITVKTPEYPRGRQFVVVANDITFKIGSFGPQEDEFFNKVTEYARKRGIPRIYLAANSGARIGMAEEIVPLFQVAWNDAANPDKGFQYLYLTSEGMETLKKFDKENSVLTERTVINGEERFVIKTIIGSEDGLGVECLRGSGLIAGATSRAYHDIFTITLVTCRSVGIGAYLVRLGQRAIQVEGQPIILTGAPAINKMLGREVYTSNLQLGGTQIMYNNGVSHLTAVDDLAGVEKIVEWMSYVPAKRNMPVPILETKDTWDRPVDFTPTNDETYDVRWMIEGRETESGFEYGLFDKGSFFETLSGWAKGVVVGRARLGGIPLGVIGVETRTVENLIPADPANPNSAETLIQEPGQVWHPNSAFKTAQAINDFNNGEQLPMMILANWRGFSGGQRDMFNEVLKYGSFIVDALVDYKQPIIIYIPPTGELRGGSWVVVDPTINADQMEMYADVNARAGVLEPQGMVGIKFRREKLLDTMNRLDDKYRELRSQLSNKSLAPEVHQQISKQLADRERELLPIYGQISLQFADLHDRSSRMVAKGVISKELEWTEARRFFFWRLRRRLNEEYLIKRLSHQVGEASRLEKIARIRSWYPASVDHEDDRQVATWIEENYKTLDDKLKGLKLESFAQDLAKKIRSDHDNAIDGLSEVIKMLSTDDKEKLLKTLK

Human ACC2, sequence (O00763 whole entry): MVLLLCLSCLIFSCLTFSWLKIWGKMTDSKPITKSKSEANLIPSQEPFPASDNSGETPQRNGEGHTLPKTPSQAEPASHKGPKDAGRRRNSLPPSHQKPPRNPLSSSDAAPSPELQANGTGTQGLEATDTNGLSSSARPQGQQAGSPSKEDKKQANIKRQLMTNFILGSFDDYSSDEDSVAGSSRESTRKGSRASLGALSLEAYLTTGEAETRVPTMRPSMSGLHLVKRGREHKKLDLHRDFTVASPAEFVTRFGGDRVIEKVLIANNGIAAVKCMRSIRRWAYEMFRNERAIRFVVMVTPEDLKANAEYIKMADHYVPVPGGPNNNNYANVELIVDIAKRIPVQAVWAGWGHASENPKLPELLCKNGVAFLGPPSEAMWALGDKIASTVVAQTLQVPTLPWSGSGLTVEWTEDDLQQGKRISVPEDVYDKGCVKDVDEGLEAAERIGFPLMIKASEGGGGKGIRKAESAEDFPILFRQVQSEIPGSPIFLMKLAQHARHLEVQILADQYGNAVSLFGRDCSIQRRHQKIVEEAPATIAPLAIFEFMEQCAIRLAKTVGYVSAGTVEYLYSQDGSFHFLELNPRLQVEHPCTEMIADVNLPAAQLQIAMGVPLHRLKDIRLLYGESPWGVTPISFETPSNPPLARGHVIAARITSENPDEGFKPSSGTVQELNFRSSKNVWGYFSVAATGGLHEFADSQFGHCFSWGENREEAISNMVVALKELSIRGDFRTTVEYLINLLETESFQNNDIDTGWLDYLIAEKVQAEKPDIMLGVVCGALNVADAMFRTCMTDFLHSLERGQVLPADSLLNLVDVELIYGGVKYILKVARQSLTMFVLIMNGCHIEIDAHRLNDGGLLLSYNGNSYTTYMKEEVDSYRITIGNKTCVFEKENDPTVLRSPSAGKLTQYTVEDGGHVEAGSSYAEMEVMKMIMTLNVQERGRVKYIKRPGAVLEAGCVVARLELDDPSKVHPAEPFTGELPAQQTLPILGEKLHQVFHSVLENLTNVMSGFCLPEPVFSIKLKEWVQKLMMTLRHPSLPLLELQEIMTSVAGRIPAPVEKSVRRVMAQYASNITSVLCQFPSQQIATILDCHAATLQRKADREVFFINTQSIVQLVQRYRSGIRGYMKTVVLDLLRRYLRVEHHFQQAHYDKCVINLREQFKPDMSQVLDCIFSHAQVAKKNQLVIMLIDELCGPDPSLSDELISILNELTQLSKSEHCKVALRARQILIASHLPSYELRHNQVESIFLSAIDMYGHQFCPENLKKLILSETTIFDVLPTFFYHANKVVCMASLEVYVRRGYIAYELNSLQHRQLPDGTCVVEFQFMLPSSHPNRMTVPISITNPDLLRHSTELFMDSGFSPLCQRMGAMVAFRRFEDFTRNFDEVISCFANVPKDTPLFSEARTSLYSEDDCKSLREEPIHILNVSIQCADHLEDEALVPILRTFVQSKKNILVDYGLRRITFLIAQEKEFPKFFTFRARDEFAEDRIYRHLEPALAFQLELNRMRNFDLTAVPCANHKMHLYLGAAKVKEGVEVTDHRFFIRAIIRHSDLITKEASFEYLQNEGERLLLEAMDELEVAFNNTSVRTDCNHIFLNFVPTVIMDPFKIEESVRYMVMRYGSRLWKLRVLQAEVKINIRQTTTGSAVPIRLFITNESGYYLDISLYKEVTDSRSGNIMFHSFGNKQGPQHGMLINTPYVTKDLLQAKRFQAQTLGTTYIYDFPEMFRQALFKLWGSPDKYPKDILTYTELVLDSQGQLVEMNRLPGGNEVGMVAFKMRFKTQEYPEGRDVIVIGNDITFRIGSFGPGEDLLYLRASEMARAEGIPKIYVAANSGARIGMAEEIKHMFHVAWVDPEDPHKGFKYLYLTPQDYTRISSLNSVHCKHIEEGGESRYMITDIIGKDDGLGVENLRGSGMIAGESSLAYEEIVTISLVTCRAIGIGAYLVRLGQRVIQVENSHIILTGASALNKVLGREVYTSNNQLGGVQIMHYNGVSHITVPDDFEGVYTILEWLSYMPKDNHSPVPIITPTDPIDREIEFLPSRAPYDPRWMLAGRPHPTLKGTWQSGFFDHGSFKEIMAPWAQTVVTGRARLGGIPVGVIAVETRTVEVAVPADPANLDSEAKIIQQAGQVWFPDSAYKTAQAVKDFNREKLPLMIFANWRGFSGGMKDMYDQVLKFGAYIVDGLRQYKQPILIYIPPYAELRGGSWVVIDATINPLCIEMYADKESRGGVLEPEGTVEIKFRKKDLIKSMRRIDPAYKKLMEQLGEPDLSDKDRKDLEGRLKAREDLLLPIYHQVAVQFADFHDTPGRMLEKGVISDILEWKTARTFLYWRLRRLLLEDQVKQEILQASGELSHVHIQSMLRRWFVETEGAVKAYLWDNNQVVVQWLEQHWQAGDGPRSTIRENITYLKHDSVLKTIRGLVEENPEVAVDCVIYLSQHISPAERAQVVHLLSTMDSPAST

| Structure (SMILES) | IC50 (Human ACC2) [nM] | MIC (C. albicans ATCC 90028) [µg/mL] | MIC (C. krusei ATCC 6258) [µg/mL] | MIC [1] [µg/mL] | IC50 (Fungal ACC2) [nM] |
| --- | --- | --- | --- | --- | --- |
| COc1ccc(F)cc1[C@H](COc1nc2sc(-n3nccn3)c(C)c2c(=O)n1[C@H]1CCN(C)C1=O)OCCCO [Compound I-156, 2-((R)-2-(5-fluoro-2-methoxyphenyl)-2-(3-hydroxy-propoxy)ethoxy)-5-methyl-3-((S)-1-methyl-2-oxopyrrolidin-3-yl)-6-(2H-1,2,3-triazol-2-yl)thieno[2,3-d]pyrimidin-4(3H)-one] | > 1000 | 2.1 to 4 (≈ 3.67 to 6.99 µM) | 2.1 to 4 (≈ 3.67 to 6.99 µM) | 2.1 to 4 (≈ 3.67 to 6.99 µM) | 100 to 1000 |
| COCCO[C@@H](Cn1c(=O)n([C@H]2CCN(C)C2=O)c(=O)c2c(C)c(-n3nccn3)sc21)c1cc(F)ccc1O [Compound I-157, 1-((R)-2-(5-fluoro-2-hydroxyphenyl)-2-(2-methoxyethoxy)ethyl)-5-methyl-3-((S)-1-methyl-2-oxopyrrolidin-3-yl)-6-(2H-1,2,3-triazol-2-yl)thieno[2,3-d]pyrimidine-2,4(1H,3H)-dione] | 100 to 1000 | 2.1 to 4 (≈ 3.76 to 7.16 µM) | 2.1 to 4 (≈ 3.76 to 7.16 µM) | 2.1 to 4 (≈ 3.76 to 7.16 µM) | 2 to 10 |
| COCCO[C@@H](Cn1c(=O)n([C@@H]2CCN(C)C2=O)c(=O)c2c(C)c(-n3nccn3)sc21)c1cc(F)ccc1O [Compound I-158, 1-((R)-2-(5-fluoro-2-hydroxyphenyl)-2-(2-methoxyethoxy)ethyl)-5-methyl-3-((R)-1-methyl-2-oxopyrrolidin-3-yl)-6-(2H-1,2,3-triazol-2-yl)thieno[2,3-d]pyrimidine-2,4(1H,3H)-dione] | 100 to 1000 | 2.1 to 4 (≈ 3.76 to 7.16 µM) | 2.1 to 4 (≈ 3.76 to 7.16 µM) | 2.1 to 4 (≈ 3.76 to 7.16 µM) | 2 to 10 |
| COc1ccc(F)cc1C(=O)Cn1c(=O)n([C@H]2CCN(C)C2=O)c(=O)c2c(C)c(-n3nccn3)sc21 [Compound I-161, (S)-1-(2-(5-fluoro-2-methoxyphenyl)-2-oxoethyl)-5-methyl-3-(1-methyl-2-oxopyrrolidin-3-yl)-6-(2H-1,2,3-triazol-2-yl)thieno[2,3-d]pyrimidine-2,4(1H,3H)-dione] | > 1000 | 2.1 to 4 (≈ 4.1 to 7.8 µM) | 2.1 to 4 (≈ 4.1 to 7.8 µM) | 2.1 to 4 (≈ 4.1 to 7.8 µM) | 100 to 1000 |
| COc1ccccc1C(=O)Cn1c(=O)n([C@H]2CCN(C)C2=O)c(=O)c2c(C)c(-n3nccn3)sc21 [Compound I-163, (S)-1-(2-(2-methoxyphenyl)-2-oxoethyl)-5-methyl-3-(1-methyl-2-oxopyrrolidin-3-yl)-6-(2H-1,2,3-triazol-2-yl)thieno[2,3-d]pyrimidine-2,4(1H,3H)-dione] | > 1000 | 2.1 to 4 (≈ 4.25 to 8.09 µM) | 2.1 to 4 (≈ 4.25 to 8.09 µM) | 2.1 to 4 (≈ 4.25 to 8.09 µM) | 100 to 1000 |
| COc1ccccc1[C@@H](O)Cn1c(=O)n([C@H]2CCN(C)C2=O)c(=O)c2c(C)c(-n3nccn3)sc21 [Compound I-165, 1-((R)-2-hydroxy-2-(2-methoxyphenyl)ethyl)-5-methyl-3-((S)-1-methyl-2-oxopyrrolidin-3-yl)-6-(2H-1,2,3-triazol-2-yl)thieno[2,3-d]pyrimidine-2,4(1H,3H)-dione] | 10 to 100 | 2.1 to 4 (≈ 4.23 to 8.06 µM) | 2.1 to 4 (≈ 4.23 to 8.06 µM) | 2.1 to 4 (≈ 4.23 to 8.06 µM) | 2 to 10 |
| COc1ccccc1C(=O)Cn1c(=O)n([C@@H]2CCN(C)C2=O)c(=O)c2c(C)c(-n3nccn3)sc21 [Compound I-167, (R)-1-(2-(2-methoxyphenyl)-2-oxoethyl)-5-methyl-3-(1-methyl-2-oxopyrrolidin-3-yl)-6-(2H-1,2,3-triazol-2-yl)thieno[2,3-d]pyrimidine-2,4(1H,3H)-dione] | 100 to 1000 | 2.1 to 4 (≈ 4.25 to 8.09 µM) | 2.1 to 4 (≈ 4.25 to 8.09 µM) | 2.1 to 4 (≈ 4.25 to 8.09 µM) | 10 to 100 |
| COc1ccc(F)cc1[C@H](Cn1c(=O)n([C@H]2CCN(C)C2=O)c(=O)c2c(C)c(-n3nccn3)sc21)OC [Compound I-168, 1-((R)-2-(5-fluoro-2-methoxyphenyl)-2-methoxyethyl)-5-methyl-3-((S)-1-methyl-2-oxopyrrolidin-3-yl)-6-(2H-1,2,3-triazol-2-yl)thieno[2,3-d]pyrimidine-2,4(1H,3H)-dione] | 10 to 100 | 2.1 to 4 (≈ 3.97 to 7.57 µM) | 2.1 to 4 (≈ 3.97 to 7.57 µM) | 2.1 to 4 (≈ 3.97 to 7.57 µM) | 2 to 10 |
| COc1ccccc1[C@@H](O)Cn1c(=O)n([C@@H]2CCN(C)C2=O)c(=O)c2c(C)c(-n3nccn3)sc21 [Compound I-169, 1-((R)-2-hydroxy-2-(2-methoxyphenyl)ethyl)-5-methyl-3-((R)-1-methyl-2-oxopyrrolidin-3-yl)-6-(2H-1,2,3-triazol-2-yl)thieno[2,3-d]pyrimidine-2,4(1H,3H)-dione] | 10 to 100 | 2.1 to 4 (≈ 4.23 to 8.06 µM) | 2.1 to 4 (≈ 4.23 to 8.06 µM) | 2.1 to 4 (≈ 4.23 to 8.06 µM) | 0.7 to 2 |
| COc1ccc(F)cc1[C@H](Cn1c(=O)n([C@@H]2CCN(C)C2=O)c(=O)c2c(C)c(-n3nccn3)sc21)OC [Compound I-170, 1-((R)-2-(5-fluoro-2-methoxyphenyl)-2-methoxyethyl)-5-methyl-3-((R)-1-methyl-2-oxopyrrolidin-3-yl)-6-(2H-1,2,3-triazol-2-yl)thieno[2,3-d]pyrimidine-2,4(1H,3H)-dione] | 10 to 100 | 2.1 to 4 (≈ 3.97 to 7.57 µM) | 2.1 to 4 (≈ 3.97 to 7.57 µM) | 2.1 to 4 (≈ 3.97 to 7.57 µM) | 0.7 to 2 |
| COc1ccccc1[C@H](Cn1c(=O)n([C@H]2CCN(C)C2=O)c(=O)c2c(C)c(-n3nccn3)sc21)OC [Compound I-171, 1-((R)-2-methoxy-2-(2-methoxyphenyl)ethyl)-5-methyl-3-((S)-1-methyl-2-oxopyrrolidin-3-yl)-6-(2H-1,2,3-triazol-2-yl)thieno[2,3-d]pyrimidine-2,4(1H,3H)-dione] | 10 to 100 | 2.1 to 4 (≈ 4.11 to 7.83 µM) | 2.1 to 4 (≈ 4.11 to 7.83 µM) | 2.1 to 4 (≈ 4.11 to 7.83 µM) | 2 to 10 |
| COc1ccccc1[C@H](Cn1c(=O)n([C@@H]2CCN(C)C2=O)c(=O)c2c(C)c(-n3nccn3)sc21)OC [Compound I-172, 1-((R)-2-methoxy-2-(2-methoxyphenyl)ethyl)-5-methyl-3-((R)-1-methyl-2-oxopyrrolidin-3-yl)-6-(2H-1,2,3-triazol-2-yl)thieno[2,3-d]pyrimidine-2,4(1H,3H)-dione] | 10 to 100 | 2.1 to 4 (≈ 4.11 to 7.83 µM) | 2.1 to 4 (≈ 4.11 to 7.83 µM) | 2.1 to 4 (≈ 4.11 to 7.83 µM) | 0.7 to 2 |
| COc1ccc(F)cc1[C@H](Cn1c(=O)n([C@H]2CCCNC2=O)c(=O)c2c(C)c(-n3nccn3)sc21)O[C@H]1CC[C@@H](O)CC1 [Compound I-173, 1-((R)-2-(S-fluoro-2-methoxyphenyl)-2-(((1s, 4S)-4-hydroxycyclohexyl)oxy)ethyl)-5-methyl-3-((S)-2-oxopiperidin-3-yl)-6-(2H-1,2,3-triazol-2-yl)thieno[2,3-d]pyrimidine-2,4(1H, 3H)-dione] | 2 to 10 | 2.1 to 4 (≈ 3.43 to 6.53 µM) | 2.1 to 4 (≈ 3.43 to 6.53 µM) | 2.1 to 4 (≈ 3.43 to 6.53 µM) | 0.7 to 2 |
| COc1ccc(F)cc1[C@H](Cn1c(=O)n([C@@H]2CCCNC2=O)c(=O)c2c(C)c(-n3nccn3)sc21)O[C@H]1CC[C@@H](O)CC1 [Compound I-174, 1-((R)-2-(5-fluoro-2-methoxyphenyl)-2-(((1 s, 4S)-4-hydroxycyclohexyl)oxy)ethyl)-5-methyl-3-((R)-2-oxopiperidin-3-yl)-6-(2H-1,2,3-triazol-2-yl)thieno[2,3-d]pyrimidine-2,4(1H,3H)-dione] | 2 to 10 | 0.25 to 1 (≈ 0.408 to 1.63 µM) | 0.25 to 1 (≈ 0.408 to 1.63 µM) | 1.1 to 2 (≈ 1.8 to 3.26 µM) | 0.7 to 2 |
